Experimental findings from patent US5905085A, “Trans cyclopentanyl deazaadenyl analogs useful as immunosuppressants” (Hoechst Marion Roussel, Inc., priority 1997, dated 1999) are described below.

As a reminder, the IC50 is the concentration at which inhibition is half-maximal.

Structures can show the parent of a compound that is named as a salt.

The test system of experiment [1] is Tumor Necrosis Factor alpha. The experiment is described as follows: Inhibition of Tumor Necrosis Factor alpha in LPS-stimulated PBMC (ELISA). The class given is cell-based. To be noted: human PBMC adherent cells, 1 μg/ml LPS from E. coli, 18 hours; read-out: IC50 (TNF-α inhibition). The procedure: Peripheral blood mononuclear cells (PBMC) are isolated from venous blood collected from healthy volunteers in sodium citrate (5 ml of 3.6% sodium citrate for 45 ml of blood) by density gradient centrifugation of 5 minutes at 1500 rpm. The PBMC are resuspended in about 10 ml of RPMI-1640 with antibiotics. Approximately 2×10^6 cells of PBMC are added to tissue culture plates, incubated for 45-60 minutes at 37° C. with 5% CO2, aspirated, and washed twice by adding about 0.5 ml fresh RPMI-1640 with 10% non-mitogenic FBS (RPMI complete) and shaking for 15 to 30 seconds. 1.0 ml RPMI-1640 is added per well to the remaining adherent cells, which are pretreated with test compound solution about 15 minutes prior to endotoxin stimulation (1 μg/ml lipopolysaccharide from E. coli or solvent concentrations equal to those of test compounds.
Cultures are incubated for 18 hours t 37° C. in 5% CO2. Supernatants are tested from TNF-a using a commercial ELISA kit (Cistron, Pine Brook, N.J.). The IC50 is determined using SOFTmax software program.

In experiment [2] the test system is MHC class II antigen on rat macrophages. The experiment can be described thus: Regulation of MHC class II expression on macrophages (flow cytometry, OX-6/OX-42). The class given is cell-based. On the procedure: Using the method of Edwards (J. of Cell Biochemistry 5E, 155(1991)), the ability of a compound of formula (1) to reduce Major Histocompatibility complex (MHC) class II antigen levels on macrophages (M.phi.) obtained from M.tuberculosis-treated rats may be measured. Cells obtained from treated rats are plated into tissue culture for a period of 4 hours to purify adherent cells, then treated with increasing levels of drug for a period of 18 hours. After this incubation period, cells are scraped from the dishes and stained using flow cytometry analysis with various monoclonal antibodies such as OX-6 a monoclonal antibody specific for MHC class II antigens and OX-42 a monoclonal antibody specific for rat macrophages.

Experiment [3] deals with rat macrophage antigen presentation to LEW/N rat T-cell hybridoma (Interleukin-2 production). The experiment is described as follows: Regulation of antigen presentation to rat T-cell hybridoma (Interleukin-2 production). Format: cell-based. On the procedure: Using the method of Ku (Cellular Immunology 130,(1990)) and a Lewis (LEW/N) rat T-cell hybridoma reactive with the protein methylated bovine serum albumin (mBSA), the ability of a compound of formula (1) to regulate M.phi. antigen presentation in vitro may be measured. Peritoneal macrophages obtained from LEW/N rats are plated into tissue culture and treated with 100 ug of mBSA and drug A control is prepared similarly. After a period of 18 hours the cells are washed and incubated with the T-cell hybridoma for an additional 12 hours. Supernatants from these cultures are obtained and measured for content of Interleukin-2, a T-cell derived lymphokine which is produced by activated T-cells. […] Rat macrophage antigen presentation and the subsequent production of Interleukin-2 are inhibited when drug is administered over a concentration range from 0.1 to 100 uM as illustrated in the following table.

Experiment [4] has as its system endotoxin-induced septic shock in CFl mice. The experiment is described as follows: Regulation of endotoxin lethality (mouse endotoxin lethality model). The class given is in vivo. To be noted: 100 mg/kg i.p., pretreated at t = -1 hr; challenge D-galactosamine 18 mg and LPS 50 ng; observed 8-72 hour. The procedure:
Using the method of Silverstein, (J. Exp. Med. 173, 357 (1991)) a mouse endotoxin lethality model may be used to determine if a compound of formula (1) has the ability to inhibit endotoxin-induced septic shock which is dependent on the production of Tumor Necrosis Factor-α (TNF-α). CFl mice pretreated at time (t)=-1 hr with drug are challenged with 18 mg of D-glactoseamine and 50 ng of LPS, then observed for death over an 8-72 hour period.

As for `Nc1ncnc2c1ncn2[C@@H]1CCC[C@H]1O` (relative stereo) [(±)-Trans-1-(9-adenyl)-2-hydroxycyclopentane, reference compound], in experiment [1], the IC50 was found to be 22.2 µM.
As to `Nc1ncnc2c1ncn2[C@@H]1CC[C@@H](O)C1` [(1R,3R)-TRANS-1(9-ADENYL)CYCLOPENTAN-3-OL HYDROCHLORIDE], the “OX-6/OX-42 double positive macrophages” value in experiment [2] (10 μM, 18 hours, positive control 59%) turned out to be 39%. Further, the inhibition at 10 µM in experiment [2] (Rattus norvegicus, Macrophage, 18 h, read-out: reduction of MHC II antigen expression on rat macrophages in vitro compared to positive control) was approximately 33%; in experiment [3] (Rattus norvegicus, T-cell, in vitro concentration 10.0 μM), 48.7%. Further, the IC50 in experiment [1] was 9 µM. The inhibition at 0.1 µM in experiment [3] (Rattus norvegicus, T-cell, in vitro concentration 0.1 μM) is 7.6%. In experiment [3] (Rattus norvegicus, T-cell, in vitro concentration 1.0 μM), this molecule showed an inhibition at 1 µM of 30.9%. In experiment [3] (Rattus norvegicus, T-cell, in vitro concentration 100.0 μM), this molecule registered an inhibition at 100 µM of 55.3%. In experiment [3] (concentration range from 0.1 to 100 uM), the “Rat macrophage antigen presentation and subsequent production of Interleukin-2” value was “inhibited”. In experiment [3] (in vitro, mBSA antigen, rat T-cell hybridoma), the T-cell activation result is reported as “inhibits T-cell activation”. For the same molecule, the “protection against endotoxin lethality” value in experiment [4] is “protects against endotoxin lethality”.
As to `Nc1nc(Cl)nc2c1ncn2[C@@H]1CC[C@@H](O)C1` [(1R,3R)-Trans-1-[9-(6-amino-2-cholopurinyl)]cyclopentan-3-ol hydrochloride], in experiment [1], the IC50 was found to be 4.1 µM.
